A short description of data set [1]: Half life in sc dosed human. The format is ADME, organism-based. Conditions: in vivo.
Data set [2] addresses T1, Glucagon-like peptide 2 receptor (Rattus norvegicus, UniProt Q9Z0W0).
T1 sequence (Q9Z0W0 whole entry): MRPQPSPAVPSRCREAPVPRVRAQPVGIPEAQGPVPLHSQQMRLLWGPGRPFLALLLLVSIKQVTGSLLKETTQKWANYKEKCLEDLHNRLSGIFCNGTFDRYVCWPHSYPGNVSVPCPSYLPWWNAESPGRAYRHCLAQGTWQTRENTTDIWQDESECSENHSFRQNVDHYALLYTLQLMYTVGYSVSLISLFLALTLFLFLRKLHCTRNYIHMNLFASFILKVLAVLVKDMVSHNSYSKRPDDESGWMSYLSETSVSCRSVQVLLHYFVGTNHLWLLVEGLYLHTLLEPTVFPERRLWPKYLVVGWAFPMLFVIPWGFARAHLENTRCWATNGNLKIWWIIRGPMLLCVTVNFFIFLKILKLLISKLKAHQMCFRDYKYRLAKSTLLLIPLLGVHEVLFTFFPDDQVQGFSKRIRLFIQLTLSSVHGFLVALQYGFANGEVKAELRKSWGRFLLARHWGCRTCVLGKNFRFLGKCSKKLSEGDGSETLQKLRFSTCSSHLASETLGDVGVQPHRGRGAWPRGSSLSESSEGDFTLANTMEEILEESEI
The data set can be described thus: Agonist activity at rat GLP2R expressed in HEK293 cells after 5 hrs by luciferase reporter gene assay. It is filed as cell-based. For orientation: Reporter assays use an easily measured gene product as a stand-in for the process of interest.

The nature of data set [3]: Protein binding in rat plasma at 200 to 1000 ng/ml incubated for 15 mins by LC/MS/MS based ultracentrifugation method. The format is ADME, cell-free. Particulars: read-out: PPB (converted).
The target in data set [4] is Glucagon-like peptide 1 receptor (Homo sapiens, UniProt P43220). The data set can be described thus: Agonist activity at human GLP1R expressed in HEK293 cells after 5 hrs by luciferase reporter gene assay. It is filed as cell-based.
The test system of a further data set is Rattus norvegicus. The data set can be described thus: Intestinotrophic activity in Sprague-Dawley rat assessed as increase in intestinal growth at 1000 nmol/kg, sc once daily through bolus administration for 5 days relative to control. The format is functional.

Sequence of Glucagon-like peptide 1 receptor (P43220 whole entry): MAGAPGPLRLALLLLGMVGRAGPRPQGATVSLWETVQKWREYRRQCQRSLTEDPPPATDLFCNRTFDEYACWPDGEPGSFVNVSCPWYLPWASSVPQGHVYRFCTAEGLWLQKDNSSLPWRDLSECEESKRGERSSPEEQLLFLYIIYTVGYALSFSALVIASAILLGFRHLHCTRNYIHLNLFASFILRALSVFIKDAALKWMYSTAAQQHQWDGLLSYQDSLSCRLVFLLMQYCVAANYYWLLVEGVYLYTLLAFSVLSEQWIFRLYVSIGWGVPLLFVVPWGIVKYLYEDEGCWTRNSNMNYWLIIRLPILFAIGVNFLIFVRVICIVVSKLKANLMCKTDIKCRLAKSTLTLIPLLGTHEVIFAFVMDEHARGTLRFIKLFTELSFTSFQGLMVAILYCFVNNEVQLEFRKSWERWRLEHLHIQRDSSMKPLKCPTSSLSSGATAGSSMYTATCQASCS

Consider `CC[C@H](C)[C@H](NC(=O)[C@H](Cc1ccccc1)NC(=O)[C@H](CC(=O)O)NC(=O)[C@H](CCCNC(=N)N)NC(=O)[C@H](C)NC(=O)[C@H](C)NC(=O)[C@H](CC(C)C)NC(=O)[C@H](CC(N)=O)NC(=O)[C@H](CC(=O)O)NC(=O)[C@H](CC(C)C)NC(=O)[C@@H](NC(=O)[C@@H](NC(=O)[C@H](CC(N)=O)NC(=O)[C@H](CCSC)NC(=O)[C@H](CCC(=O)O)NC(=O)[C@H](CC(=O)O)NC(=O)[C@H](CO)NC(=O)[C@H](Cc1ccccc1)NC(=O)[C@H](CO)NC(=O)CNC(=O)[C@H](CC(=O)O)NC(=O)CNC(=O)[C@@H](N)Cc1c[nH]cn1)[C@@H](C)O)[C@@H](C)CC)C(=O)N[C@@H](CC(N)=O)C(=O)N[C@@H](Cc1c[nH]c2ccccc12)C(=O)N[C@@H](CC(C)C)C(=O)N[C@H](C(=O)N[C@@H](CCC(N)=O)C(=O)N[C@H](C(=O)N[C@@H](CCCCN)C(=O)N[C@H](C(=O)N[C@H](C(=O)N[C@@H](CC(=O)O)C(=O)O)[C@@H](C)O)[C@@H](C)CC)[C@@H](C)O)[C@@H](C)CC` [TEDUGLUTIDE], for which, in data set [1], the half-life (as a rule, how long it takes for the measured level to halve) is 3 h. The EC50 (as a rule, the concentration needed to bring the measured effect to its halfway point) was 0.08 nM in data set [2] and more than 1000 nM in data set [4]. Also, in data set [3], the fraction unbound at 0.25 h is 0.419. The Activity in the data set on Rattus norvegicus turned out to be 39%.

The values above are taken from ChEMBL document CHEMBL3822442, “Synthesis and Pharmacological Characterization of Novel Glucagon-like Peptide-2 (GLP-2) Analogues with Low Systemic Clearance” (J Med Chem, 2016).
